According to patent publication US6495699B2, “Metalloproteinase inhibitors, pharmaceutical compositions containing them, and their use” (Agouron Pharmaceuticals Inc., priority 1996, dated 2002):

How the values were obtained:
Format in all cases: biochemical
[1] = target: T1, catalytic domain of human stromelysin (Hsln) (Homo sapiens, UniProt P08254); experiment: Fluorometric MCA-peptide hydrolysis assay, stromelysin (Hsln); details: apparent Ki; 10 μM MCA peptide substrate, 37° C., pH 7.5; read-out: Hsln (Ki,app)
T1 construct: The catalytic domain of human stromelysin (Hsln) was obtained by expression and purification of a C-terminally truncated prostromelysin-1; made in house; host or cells: E. coli BL21
T1 sequence (P08254 100-272 limits assumed): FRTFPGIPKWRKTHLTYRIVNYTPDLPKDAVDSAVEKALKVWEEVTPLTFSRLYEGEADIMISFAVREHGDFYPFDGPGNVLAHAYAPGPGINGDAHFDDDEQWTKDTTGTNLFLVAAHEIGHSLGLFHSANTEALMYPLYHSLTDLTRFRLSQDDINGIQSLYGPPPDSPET
Procedure: The catalytic domain of human stromelysin (Hsln) was obtained by expression and purification of a C-terminally truncated prostromelysin-1 from E. coli host BL21 (see Marcy et al. Biochem., 1991, 30, 6476). The subsequent activation of the mature form (Hsln) was completed with 2 mM APMA for 1 hour at 37° C., followed by separation using a sizing column.
(§1) Assays were performed in assay buffer (50 mM Tricine pH 7.5, 200 mM sodium chloride, 10 mM calcium chloride, 0.5 mM zinc acetate containing 2% dimethyl sulfoxide (DMSO)) once the substrate and inhibitor were diluted into it. Stock solutions of inhibitors were prepared in 100% DMSO. Stock solutions of the substrate were prepared in 100% DMSO at a concentration of 6 mM.
(§2) The assay method was based on the hydrolysis of MCA-Pro-Leu-Gly-Leu-DPA-Ala-Arg-NH2 (American Peptide Co.) at 37° C. (see Knight, C. G. et al., FEBS, 1992, 296, 263-266). The fluorescence changes were monitored with a Perkin-Elmer LS-50B fluorimeter using an excitation wavelength of 328 nm and an emission wavelength of 393 nm. The substrate concentration used in the assays was 10 μM. The inhibitor was diluted into the assays from a solution in 100% DMSO, and controls substituted an equal volume of DMSO so that the final DMSO concentration from inhibitor and substrate dilution in all assays was 2%. […] Proper determination of steady-state rates of substrate cleavage required assay lengths of 60 minutes to allow for complete equilibration of the enzyme-inhibitor complex.
(§3) The Km for the MCA peptide substrate with the matrix metalloproteinases is quite high and exceeds its solubility under assay conditions. Consequently, the apparent Ki (Ki,app) was determined to describe the strength of inhibition. However, in this case, Ki,app would be essentially equal to Ki since [S]<<Km. For the determination of Ki,app, the concentration of the inhibitor was varied at a constant and low concentration of substrate and the steady-state rates of fluorescence change determined. In most cases absorptive quench due to the presence of ligand was not observed. For slow-binding inhibitors, onset of inhibition curves were collected for at least 45 minutes so that equilibrium was established. Steady-state rates of fluorescence change were obtained by fitting a curve to an equation for a single exponential decay containing a linear phase. The fitted value of the linear phase was taken as the steady-state rate. The steady-state rates were fitted to the Michaelis equation describing competitive inhibition by non-linear methods. Data resulting from tight-binding inhibition was analyzed, and Ki,app determined by fitting the data to the tight-binding equation of Morrison (Biochem. Biophys. Acta, vol. 185, pp. 269-286 (1969)) by non-linear methods.

[2] = target: T2, human progelatinase A (GelA), catalytic and fibronectin-like portion (Homo sapiens, UniProt P08253); experiment: Fluorometric MCA-peptide hydrolysis assay, gelatinase A (GelA); details: apparent Ki, 10 μM MCA peptide substrate, 37° C., pH 7.5; for Ki: read-out: GelA (Ki,app)
T2 construct: The catalytic and fibronectin-like portion of human progelatinase A (GelA) was expressed as a fusion protein with ubiquitin; ubiquitin; made in house; host or cells: E. coli
T2 sequence (P08253 110-465 limits assumed): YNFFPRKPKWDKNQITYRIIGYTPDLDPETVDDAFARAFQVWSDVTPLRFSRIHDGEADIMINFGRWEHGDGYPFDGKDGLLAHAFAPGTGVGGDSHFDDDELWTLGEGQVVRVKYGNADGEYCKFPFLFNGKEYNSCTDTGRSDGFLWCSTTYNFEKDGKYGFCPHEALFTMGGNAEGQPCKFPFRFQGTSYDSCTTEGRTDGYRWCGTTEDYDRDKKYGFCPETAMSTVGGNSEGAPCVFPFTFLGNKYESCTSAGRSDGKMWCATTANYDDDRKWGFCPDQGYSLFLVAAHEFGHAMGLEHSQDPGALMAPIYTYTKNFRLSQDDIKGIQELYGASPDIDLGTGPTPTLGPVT
Procedure: The catalytic and fibronectin-like portion of human progelatinase A (GelA) was expressed as a fusion protein with ubiquitin in E. Coli. Assays were carried out on autocatalytically activated material.
as §1, §2, §3

[3] = target: T3, human collagenase-3 (Coll3) (Homo sapiens, UniProt P45452); experiment: Fluorometric MCA-peptide hydrolysis assay, collagenase-3 (Coll3); details: apparent Ki; 10 μM MCA peptide substrate, 37° C., pH 7.5; read-out: Coll3 (Ki,app)
T3 construct: the catalytic domain was liberated by treatment with 2 mM APMA at room temperature overnight; ubiquitin (N, cleaved yes); made in house; host or cells: E. coli
Procedure: The propeptide and catalytic domain of human collagenase-3 (Coll3) was expressed in E. coli as an N-terminal fusion protein with ubiquitin. After purification of the fusion from inclusion bodies, the catalytic domain was liberated by treatment with 2 mM APMA at room temperature overnight. Final purification was completed using copper chelate chromatography.
as §1, §2
as §3, with “In most cases absorptive quench due to the presence of ligand was not observed.” left out

Human matrilysin (Matr) = target: T4, Human matrilysin (Matr) (Homo sapiens, UniProt P09237); experiment: Fluorometric MCA-peptide hydrolysis assay, matrilysin (Matr); details: apparent Ki; 10 μM MCA peptide substrate, 37° C., pH 7.5; read-out: Matr (Ki,app)
T4 construct: the catalytic domain was liberated by treatment with 2 mM APMA at 37° C. for 2 hours; ubiquitin (cleaved yes); made in house; host or cells: E. coli
T4 sequence (P09237 95-267): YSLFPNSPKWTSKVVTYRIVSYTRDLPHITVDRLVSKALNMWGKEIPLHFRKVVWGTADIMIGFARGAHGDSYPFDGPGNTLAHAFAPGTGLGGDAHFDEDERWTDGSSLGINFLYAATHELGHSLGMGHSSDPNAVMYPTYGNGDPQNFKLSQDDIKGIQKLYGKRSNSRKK
Procedure: Human matrilysin (Matr) was expressed in E. coli as a fusion protein with ubiquitin. After purification of the matrilysin/ubiquitin fusion from inclusion bodies, the catalytic domain was liberated by treatment with 2 mM APMA at 37° C. for 2 hours. Final purification was complete using copper chelate chromatography.
as §1, §2, §3

Molecule	Ki [1] [nM]	Ki [2] [nM]	Ki [3] [nM]	GelA (Ki,app) [2] [nM]	Ki (Human matrilysin (Matr)) [nM]
3(R)-[3-(4-Cyanophenyl)-1H-pyrrol-1-yl]-N-(2,2-dimethyl-1(S)-(hydroxymethyl)propyl)succinamic Acid Triethylammonium Salt [Example 5(h)]	650	17.4	43		
3(R)-[3-(4′-Cyanobiphenyl-4-yl)-1H-pyrrol-1-yl]-N-[2,2-dimethyl-1(S)-(hydroxymethyl)propyl]succinamic Acid Triethylammonium Salt [Example 5(g)]	57	2.2	14.5		
CCCC(C(=O)O)[C@H](C(=O)N[C@H](CO)Cc1ccccc1)n1ccc(-c2ccc(-c3ccc(C#N)cc3)cc2)c1 (mixture of isomers) [Example 10(b), 2(RS)-{1R-[1(S)-Benzyl-2-hydroxyethylcarbamoyl]-[3-(4′-cyano-biphenyl-4-yl)-1H-pyrrol-1-yl]-methyl}-pentanoic Acid]	16		23.5	9.6	510
CC(C)C[C@H](NC(=O)[C@@H](CC(=O)O)n1ccc(-c2ccc(-c3ccccc3)cc2)c1)C(C)O (mixture of isomers) [Example 3]	150		180	58	1250
O=C(O)C[C@H](C(=O)N[C@H](CO)Cc1ccccc1)n1ccc(-c2ccc(-c3ccccc3)cc2)c1 [1(a), N-(1(S)-Benzyl-2-hydroxyethyl)-3(R)-[3-(biphenyl-4-yl)-1H-pyrrol-1-yl]succinamic Acid]	65		30	5.4	1000
O=C(O)C(F)(F)F.O=C(O)C[C@H](C(=O)N[C@H](CO)Cc1c[nH]cn1)n1ccc(-c2ccc(-c3ccccc3)cc2)c1 [Example 1(g), 3(R)-[3-(Biphenyl-4-yl)-1H-pyrrol-1-yl]-N-[2-hydroxy-1(S)-[(1H-imidazol-4-yl)methyl]ethyl]succinamic Acid Trifluoroacetate Salt]	58		58.5	8.5	
O=C(O)C[C@H](C(=O)N[C@@H]1CCCC[C@H]1O)n1ccc(-c2ccc(-c3ccccc3)cc2)c1 [Example 1(h), 3(R)-[3-(Biphenyl-4-yl)-1H-pyrrol-1-yl]-N-(2(R)-hydroxycyclohex-1(R)-yl)succinamic Acid]	822		3000	58	
CON(C)C(=O)[C@H](CC(C)C)NC(=O)[C@@H](CC(=O)O)n1ccc(-c2ccc(-c3ccccc3)cc2)c1 [Example 1(l)]	317		227	54	
CNC(=O)[C@@H](NC(=O)[C@@H](CC(=O)O)n1ccc(C(=O)Cc2ccc(C#N)cc2)c1)C(C)(C)C [Example 1(p), 3(R)-[3-[(4-Cyanophenyl)acetyl]-1H-pyrrol-1-yl]-N-(2,2-dimethyl-1(S)-(methylcarbamoyl)propyl]succinamic Acid]	55000			1230	
CC(=O)[C@H](CC(C)C)NC(=O)[C@@H](CC(=O)O)n1ccc(-c2ccc(-c3ccccc3)cc2)c1 [Example 2, N-(1(S)-Acetyl-3-methylbutyl)-3(R)-[3-(biphenyl-4-yl)-1H-pyrrol-1-yl)succinamic Acid]	89		123	6.2	400
CNC(=O)[C@@H](CC(=O)O)n1ccc(-c2ccc(-c3ccncc3)cc2)c1 [Example 7(d), N-Methyl-3(R)-[3-[4-(pyridin-4-yl)phenyl]-1H-pyrrol-1-yl]succinamic Acid]	1580		284	121	
O=C(C[C@H](C(=O)N[C@H](CO)Cc1ccccc1)n1ccc(-c2ccc(-c3ccccc3)cc2)c1)NO [Example 8(a)]	0.69			0.027	36
CC(C)(C)[C@@H](CO)NC(=O)[C@@H](CC(=O)NO)n1ccc(-c2ccc(-c3ccncc3)cc2)c1 [Example 9, N^1-[2,2-Dimethyl-1(S)-(hydroxymethyl)propyl]-N^4-hydroxy-2(R)-[3-[4-(pyridin-4-yl)phenyl]-1H-pyrrol-1-yl]succinamide]	0.2		0.018	0.011	
CC(C)(C)[C@@H](CO)NC(=O)[C@@H]([C@H](CCCO)C(=O)O)n1ccc(-c2ccc(-c3ccccc3)cc2)c1 [Example 11, 2S-[1R-(3-(Biphenyl-4-yl)-1H-pyrrol-1-yl)-1-(1(S)-hydroxymethyl-2,2-dimethyl-propylcarbamoyl)-methyl]-5-hydroxypentanoic Acid]	62		> 750	60	
C=CC[C@H](C(=O)O)[C@H](C(=O)N[C@H](CO)C(C)(C)C)n1ccc(-c2ccc(-c3ccccc3)cc2)c1 [Example 12, 2S, 2(1S)-[[3-(Biphenyl-4-yl)-1H-pyrrol-1R-yl]-[2,2-dimethyl-1(S)-(hydroxymethyl)propylcarbamoyl]methyl]pent-4-enoic Acid]	> 500			> 500	
CNC(=O)[C@@H](NC(=O)[C@@H](CC(=O)O)c1ccn(-c2ccc(-c3ccc(C#N)cc3)cc2)c1)C(C)(C)C [Example 14(b), 3(S)-[1-(4′-Cyanobiphenyl-4-yl)-1H-pyrrol-3-yl]-N-[2,2-dimethyl-1(S)-(methylcarbamoyl)propyl]succinamic Acid]	1.3		0.028	0.012	
O=C(O)C[C@H](C(=O)N[C@H](CO)Cc1ccccc1)c1ccc(-c2ccc(-c3ccccc3)cc2)o1 [Example 15(a), N-(1(S)-Benzyl-2-hydroxyethyl)-3(S)-(2-(biphenyl-4-yl)furan-5-yl)succinamic Acid]	92		300	72	
CNC(=O)[C@@H](NC(=O)C(CC(=O)O)c1ccc(-c2ccc(-c3ccccc3)cc2)o1)C(C)(C)C (stereo partly drawn) [Example 15(b), N-[2,2-Dimethyl-1(S)-(methylcarbamoyl)propyl]-3-(2-(biphenyl-4-yl)-furan-5-yl)succinamic Acid]	122		1020	91	
